Measured values reported in patent EP0728012B1, “NOVEL GnRH ANALOGUES WITH ANTITUMOUR EFFECTS AND PHARMACEUTICAL COMPOSITIONS THEREOF” (Lovas, Sandor, priority 1994, dated 1996).
Like-named read-outs stand apart in the source and are kept apart here. Non-standard residues stand in square brackets, D forms with d. Residues, ends and D or L forms follow the SMILES beside them. pGlu = O=C1CC[C@@H](C(=O)O)N1

Legend:
[1] = system: MDA-MB-231; assay: Inhibition of colony formation by GnRH analogues (dose-survival, Example 48); assay type: cell-based, human
Procedure: (§1) The examination gives accurate information about the cell-damaging effect of the substance tested as a function of varying doses. The treatment was carried out once; the colonies formed from the surviving cells were counted after 8 - 12 days. […] A part of the arrested cells again entered the cycle, another part of them might be destroyed (apoptosis). […] In the case of a dose-response investigation, colonies containing less than 15 cells were not counted. 300 cells were put into each Petri dishes of 3.5 cm in diameter. The treatment was once carried out 24 hours after setting, then the colonies formed were counted after 8 - 12 days. The cells were treated once after 24 hours with 1-50 µM of various GnRH analogues of Examples above or with 1 - 50 µM of GnRH-III, respectively. The percentages of inhibition obtained on MCF-7, MDA-MB-231, PC3 and Ishikawa cells, respectively, together with the dose of the active agent used are shown in Table VIII.

[2] = system: MCF-7; assay: as above; assay type: cell-based, human; details: treated once
Procedure: as §1

[3] = system: human tumour cell lines; assay: Inhibition of colony formation (Example 48), comparison with the control D-Trp^6-hGnRH; assay type: cell-based; details: data of Table VIII
Procedure: as §1
In these studies the D-Trp^6-hGnRH analogue (Sigma Co.) commonly used in the tumour therapy was employed as control.

[4] = system: Ishikawa; assay: Inhibition of colony formation by GnRH analogues (dose-survival, Example 48); assay type: cell-based, human; details: 50 µM
Procedure: as §1

[5] = system: Ishikawa human endometrium carcinoma cell line; assay: Inhibition of colony formation (dose-survival relation, Example 18); assay type: cell-based; details: for inhibition of colony formation: concentration not given; for % Inhibition of colony formation: 50 µM
Procedure: (§2) In the case of cytostatics the cell-damaging effect is not cell-specific. […] One part of the arrested cells again go into the cycle, the other part may perish (apoptosis). […] The investigations were carried out on MCF-7 and MDA-MB-231 human mammary carcinoma cell lines, PC3 human prostate 15 carcinoma cell line and Ishikawa human endometrium carcinoma cell line. Three hundred cells were set into Petri dishes of 3.5 cm in diameter each. The treatment was carried out once, 24 hours following the explantation, then the colonies formed were counted after 9 to 12 days.

[6] = system: MCF-7 human mammary carcinoma cell line; assay: as above; assay type: cell-based; details: for inhibition of colony formation: concentration not given; for % Inhibition of colony formation: 50 µM (active substance), treated once
Procedure: as §2

[7] = system: PC3; assay: Inhibition of colony formation by GnRH analogues (dose-survival, Example 48); assay type: cell-based, human; details: for % Inhibition of the colony formation: 50 µM
Procedure: as §1

[8] = system: MDA-MB-231; details: for % Inhibition of cell division (proliferation): MDA-MB-231, 30 µM active substance, conjugate, treated once
Procedure: (§3) The procedure of treatment was as follows. After trypsinization the cells, 400,000 cells of MCF-7, MDA-MB-231 human mammary carcinoma, PC3 human prostate carcinoma or Ishikawa human endometrium tumour each were passed into Petri dishes of 10 cm in diameter. Starting from the day following transfer, the cells were treated with the substances to be tested in solution prepared with the nutrient medium during the exponential growth phase. […]

[9] = system: MCF-7; details: for % Inhibition of cell division (proliferation): MCF-7, 30 µM active substance, conjugate, treated once, cell count on 7th day
Procedure: as §3

[10] = system: PC3 human prostate carcinoma cell line; assay: Inhibition of colony formation (dose-survival relation, Example 18); assay type: cell-based; details: for inhibition of colony formation: concentration not given
Procedure: as §2

[11] = system: MDA-MB-231 human mammary carcinoma cell line; assay: as above; assay type: cell-based; details: for % Inhibition of colony formation: 50 µM
Procedure: as §2

[12] = system: PC3; assay: In vitro inhibition of cell proliferation (Example 19); assay type: cell-based, human; details: 30 µM, peptide alone, two treatments on days 2 and 4
Procedure: The procedure of treatment was as follows. After trypsinization the cells, 400,000 cells of MCF-7, MDA-MB-231 human mammary carcinoma, PC3 human prostate carcinoma or Ishikawa human endometrium tumour each were passed into Petri dishes of 10 cm in diameter. Starting from the day following transfer, the cells were treated with the substances to be tested in solution prepared with the nutrient medium during the exponential growth phase. The cultures were treated with 1 to 50 µM (calculated for the total volume of the culture) or MI-1544 GnRH antagonist, MI-1892 chicken GnRH antagonist or SJ-1004 GnRH antagonist analogues as well as synthetic lamprey GnRH-III hormone every two days and the cell count was determined on the 7th day.

NCCCC[C@H](NC(=O)[C@H](Cc1ccccc1)NC(=O)[C@H](CC(=O)O)NC(=O)[C@H](Cc1c[nH]cn1)NC(=O)[C@H](CO)NC(=O)[C@H](Cc1c[nH]c2ccccc12)NC(=O)[C@H](Cc1c[nH]cn1)NC(=O)[C@@H]1CCC(=O)N1)C(=O)N1CCC[C@H]1C(=O)NCC(N)=O [15. Phe^7 -GnRH-III, Phe^7-GnRH-III]
% Inhibition of the colony formation ([1]; 50 µM): 21%
% Inhibition of the colony formation ([2]; 50 µM): 26%
inhibitory effect compared with the control D-Trp^6-hGnRH [3]: a weak if any effect

NCCCC[C@H](NC(=O)[C@H](CO)NC(=O)[C@H](Cc1c[nH]c2ccccc12)NC(=O)[C@H](Cc1c[nH]cn1)NC(=O)[C@@H]1CCC(=O)N1)C(=O)N[C@H]1CC(=O)NCCCC[C@@H](C(=O)N2CCC[C@H]2C(=O)NCC(N)=O)NC(=O)[C@H](Cc2c[nH]c3ccccc23)NC1=O [Lys^5, cyclo[Asp^6-Lys^8]-GnRH-III]
% Inhibition of the colony formation ([2]; 50 µM): 44%
% Inhibition of the colony formation [4]: 13%
inhibition of colony formation [5]: 13%
inhibition of colony formation [6]: 44%
inhibitory effect compared with the control D-Trp^6-hGnRH [3]: exceeded the inhibitory effect of control

NCCCC[C@H](NC(=O)[C@H](Cc1cn(C=O)c2ccccc12)NC(=O)[C@H](CC(=O)O)NC(=O)[C@H](Cc1c[nH]cn1)NC(=O)[C@H](CO)NC(=O)[C@H](Cc1cn(C=O)c2ccccc12)NC(=O)[C@H](Cc1c[nH]cn1)NC(=O)[C@@H]1CCC(=O)N1)C(=O)N1CCC[C@H]1C(=O)NCC(N)=O [14. [Trp(For-Ind)]^3,7- -GnRH-III, [Trp(For-Ind)]^3,7-GnRH-III]
% Inhibition of the colony formation ([2]; 50 µM): 31%
% Inhibition of the colony formation [4]: 24%
inhibitory effect compared with the control D-Trp^6-hGnRH [3]: approximated the activity of the control

NCCCC[C@H](NC(=O)[C@H](Cc1c[nH]c2ccccc12)NC(=O)[C@H](CCC(=O)O)NC(=O)[C@H](Cc1c[nH]cn1)NC(=O)[C@H](CO)NC(=O)[C@H](Cc1c[nH]c2ccccc12)NC(=O)[C@H](Cc1c[nH]cn1)NC(=O)[C@@H]1CCC(=O)N1)C(=O)N1CCC[C@H]1C(=O)NCC(N)=O [8. Glu^6-GnRH-III, Glu^6-GnRH-III]
% Inhibition of the colony formation ([1]; 50 µM): 25%
% Inhibition of the colony formation [7]: 31%
% Inhibition of the colony formation ([2]; 50 µM): 44%
% Inhibition of the colony formation [4]: 2%
inhibitory effect compared with the control D-Trp^6-hGnRH [3]: exceeded the inhibitory effect of control

Ac-D-Trip^1,3,D-Cpa^2,{Lys[n-poly(N-vinylpyrrolidone-co-maleic acid)-Gly-Leu-Gly-]}^5,[a-Asp(DEA)]^6, D-Ala^10-GnRH [P-GLG-1892]
% Inhibition of cell division (proliferation) ([8]; listed as 13. P-GLG-MI-1892): 35%
% Inhibition of cell division (proliferation) ([9]; listed as 13. P-GLG-MI-1892): 33%

NCCCC[C@H](NC(=O)[C@H](CO)NC(=O)[C@H](Cc1c[nH]c2ccccc12)NC(=O)[C@H](Cc1c[nH]cn1)NC(=O)[C@@H]1CCC(=O)N1)C(=O)N[C@@H](CC(=O)O)C(=O)N[C@@H](Cc1c[nH]c2ccccc12)C(=O)N[C@@H](CCCCN)C(=O)N1CCC[C@H]1C(=O)NCC(N)=O [2. Lys^5-GnRH-III, Lys^5-GnRH-III]
% Inhibition of the colony formation ([1]; 50 µM): 0%
% Inhibition of the colony formation ([2]; 50 µM): 0%

{Lys[n-poly(N-vinylpyrrolidone-co-maleic acid)-Gly-Phe-Leu-Gly-]}^5,cyclo(Asp^6-Lys^8)-GnRH-III [P-GFLG-Lys^5-cyclo(Asp^6,Lys^8)-GnRH-III]
% Inhibition of colony formation [5]: 19%
inhibition of colony formation [5]: 19%
% Inhibition of colony formation [6]: 78%
% Inhibition of colony formation ([10]; 50 µM): 100%
inhibition of colony formation [10]: 100%
% Inhibition of colony formation [11]: 82%

CC(C)C[C@H](NC(=O)[C@@H](Cc1c[nH]c2ccccc12)NC(=O)[C@H](Cc1ccc(O)cc1)NC(=O)[C@H](CO)NC(=O)[C@H](Cc1c[nH]c2ccccc12)NC(=O)[C@H](Cc1c[nH]cn1)NC(=O)[C@@H](N)CCC(=O)O)C(=O)N[C@@H](CCCNC(=N)N)C(=O)N1CCC[C@H]1C(=O)NCC(N)=O [19. H-Glu^1,D-Trp^6 - hGnRH, H-Glu^1,D-Trp^6-hGnRH]
% Inhibition of the colony formation ([2]; 10 µM): 16.8%
% Inhibition of the colony formation ([2]; 50 µM): 32.7%
inhibitory effect compared with the control D-Trp^6-hGnRH [3]: approximated the activity of the control

Ac-D-Trp^1,3,D-Cpa^2,{Lys[n-poly(N-vinylpyrrolidone-co-maleic acid)-Phe-Leu-Gly-]}^5,a-Asp (DEA)]^6,D-Ala^10-GnRH [P-FLG-1892]
% Inhibition of cell division (proliferation) ([8]; listed as 12. P-FLG-MI-1892): 35%
% Inhibition of cell division (proliferation) ([9]; listed as 12. P-FLG-MI-1892): 33%

pGlu-His-Trp-Ser-Tyr-D-Trp-Leu-Arg-Pro-Gly-NH2 [D-Trp^6-hGnRH (Decapeptyl), reference compound]
% Inhibition of the colony formation ([1]; 10 µM): 15.7%
% Inhibition of the colony formation ([1]; 50 µM): 38.7%
% Inhibition of the colony formation ([2]; 10 µM): 17.1%
% Inhibition of the colony formation ([2]; 50 µM): 36.7%

CC(C)C[C@H](NC(=O)[C@@H](Cc1c[nH]c2ccccc12)NC(=O)[C@H](CCCCN)NC(=O)[C@H](CO)NC(=O)[C@H](Cc1c[nH]c2ccccc12)NC(=O)[C@H](Cc1c[nH]cn1)NC(=O)[C@@H]1CCC(=O)N1)C(=O)N[C@@H](CCCNC(=N)N)C(=O)N1CCC[C@H]1C(=O)NCC(N)=O [17. Lys^5-DTrp^6-hGnRH, Lys^5,D-Trp^6-hGnRH] ([pGlu]HWSK[dW]LRPG-NH2)
% Inhibition of the colony formation ([1]; 10 µM): 30%
% Inhibition of the colony formation ([1]; 50 µM): 63%
% Inhibition of the colony formation [7]: 18%
inhibition of colony formation ([7]; within the dose range used (1-50 µM)): weakly inhibited
% Inhibition of the colony formation ([2]; 10 µM): 39%
% Inhibition of the colony formation ([2]; 50 µM): 65%
% Inhibition of the colony formation [4]: 17%
% Inhibition of the colony formation ([4]; listed as compound 17, 50 µM): 15%
inhibitory effect compared with the control D-Trp^6-hGnRH [3]: a twice stronger inhibition

{Lys[n-poly(N-vinylpyrrolidone-co-maleic acid)-Gly-Phe-Leu-Gly-]}^4,-GnRH-III [P-GFLG-Lys^4-GnRH-III]
% Inhibition of colony formation [5]: 25%
inhibition of colony formation [5]: 25%
% Inhibition of colony formation [6]: 68%
inhibition of colony formation [6]: 68%
% Inhibition of colony formation ([10]; 30 µM): 94%
inhibition of colony formation [10]: 94%
% Inhibition of colony formation [11]: 75%
inhibition of colony formation ([11]; concentration not given): 75%

CC(C)C[C@H](NC(=O)[C@@H](CCCCN)NC(=O)[C@H](Cc1ccc(O)cc1)NC(=O)[C@H](CO)NC(=O)[C@@H](Cc1c[nH]c2ccccc12)NC(=O)[C@@H](Cc1ccccc1)NC(=O)[C@@H]1CCC(=O)N1)C(=O)N[C@@H](CCCNC(=N)N)C(=O)N1CCC[C@H]1C(=O)NCC(N)=O [SJ-1004, D-Phe^2,D-Trp^3,D-Lys^6-hGnRH, reference compound] ([pGlu][dF][dW]SY[dK]LRPG-NH2)
inhibition of proliferation (decrease in cell count) ([8]; MDA-MB-231 (10% FCS), 30 µM, peptide alone, treated every two days (two treatments)): 23%
inhibition of proliferation (decrease in cell count) ([9]; MCF-7 (10% FCS), 30 µM, peptide alone, treated every two days (two treatments, days 2 and 4)): 17%
% Inhibition of colony formation [5]: 5%
% Inhibition of colony formation [6]: 31%
% Inhibition of colony formation ([10]; 50 µM): 0%
% Inhibition of colony formation [11]: 26%
inhibition of proliferation [12]: 10%

NCCCC[C@H](NC(=O)[C@H](Cc1c[nH]c2ccccc12)NC(=O)[C@H](CC(=O)O)NC(=O)[C@H](CCCCNC(=O)OCC1c2ccccc2-c2ccccc21)NC(=O)[C@H](CO)NC(=O)[C@H](Cc1c[nH]c2ccccc12)NC(=O)[C@H](Cc1c[nH]cn1)NC(=O)[C@@H]1CCC(=O)N1)C(=O)N1CCC[C@H]1C(=O)NCC(N)=O [Example 26, [Lys(εFmoc)]^5-GnRH-III]
inhibitory effect compared with the control D-Trp^6-hGnRH [3]: a weak if any effect
